Measurements: US10092515B2, “Liposomal formulations of polymyxin B and uses thereof” (University of Houston System, priority 2012, dated 2018)

Experiments:
[1] = Onset of nephrotoxicity (serum creatinine >=2-fold baseline) at escalating daily doses; format: in vivo, Sprague-Dawley rats; conditions: rats
From the text: Female Sprague-Dawley rats (225 to 250 g) (Harlan, Indianapolis, Ind.) were used. The rats received food and water ad libitum. All animals were cared for in accordance with the highest humane and ethical standards, as approved by the Institutional Animal Care and Use Committee (IACUC) of the University of Houston. The jugular veins of selected animals were cannulated to facilitate intravenous drug administration.
Prior to each experiment, polymyxin B for injection (USP) was reconstituted with sterile water for injection (USP) and diluted to achieve the desired concentration. The reconstituted drug solution was stored at −80° C. in aliquots and thawed immediately before dosing.
To mimic a clinical course of polymyxin B treatment, three groups of rats (n=13 each) were administered escalating dose levels of polymyxin B (5 mg/kg, 10 mg/kg, and 20 mg/kg, respectively) once daily subcutaneously for up to 7 days. Blood samples (approximately 200 μl) were drawn via the tail vein at baseline and on a daily basis (before dosing when applicable). Blood was allowed to clot on ice, and serum was separated by centrifugation at 4,000×g for 10 min. Serum samples (100 μl) were further assayed for creatinine levels by use of a clinical chemistry analyzer (Piccolo Xpress; Abaxis, Inc., Union City, Calif.). A significant elevation in serum creatinine (≥2-fold […] the baseline level) was set as the endpoint for nephrotoxicity. Kaplan-Meier survival analysis and a log rank (Mantel-Cox) test were used to compare the times of onset of nephrotoxicity among various groups. Right censoring was used if the nephrotoxicity endpoint was not observed by day 7.

[2] = Renal tissue concentration of polymyxin B at escalating dose levels; format: in vivo, Sprague-Dawley rats; conditions: rats, 24 h after first dose, summed components
Protocol: (§1) A validated ultraperformance liquid chromatography-tandem mass spectrometry (UPLC/MS-MS) method was modified to determine the concentrations of polymyxin B in rat serum and renal tissues, as previously described (32). The lower limit of quantification (LLOQ) was 50 ng/ml for all the major components of polymyxin B in serum as well as the renal tissue homogenate.
To determine the renal tissue concentration of polymyxin B, three rats from each dosing group were randomly selected and sacrificed at 24 h after the first dose; kidneys were harvested and homogenized. A fixed time point was selected to avoid any potential confounding due to different cumulative doses received when nephrotoxocity was observed. The concentrations of the major components of polymyxin B (polymyxin B1, polymyxin B2, polymyxin B3, and isoleucine polymyxin B1) were determined in […] as described above.
For the purpose of drug quantification in the renal tissue homogenates, the estimated concentrations were divided by the total weight of the kidney and the final concentrations were expressed per gram of renal tissue (in micrograms/gram). The summed concentrations of individual components were used to estimate the overall renal drug exposure (33). One-way analysis of variance (ANOVA) and then post hoc Tukey's test were used to compare the mean renal tissue concentrations among the dosing groups, and P values of <0.05 were considered significant.

[3] = Polymyxin B pharmacokinetics in megalin-shedding rats (serum and renal tissue); format: in vivo, Sprague-Dawley rats; conditions: for AUC0-∞, renal tissue/AUC0-∞, serum ratio / AUC0-∞, renal tissue / AUC0-∞, serum / renal tissue polymyxin B concentration (3 h postdosing): rats, 3 mg/kg IV
Protocol: as §1
To study the impact of sodium maleate pretreatment on systemic/renal exposure of polymyxin B, the rats were divided into two groups (n=13 each). Animals in both control and experimental groups were administered a single intravenous dose of 3 mg/kg of polymyxin B sulfate (USP). The intravenous route of polymyxin B administration was preferred to avoid any interference with drug absorption at the injection site. In addition, the animals in the experimental group were given 400 mg/kg of sodium maleate intraperitoneally 3 to 6 h prior to polymyxin B administration. Serum samples were obtained at 1.5, 3, 4.5, 6, and 7.5 h after polymyxin B dosing. In addition, the rats were sacrificed to harvest the kidneys at 3, 6, and 24 h (n=3 at each time point) postdosing. Polymyxin B concentrations in serum and renal tissue samples were assayed by the validated UPLC-MS/MS method detailed above.
The mean concentrations of polymyxin B in serum, as well as in renal tissue samples, at each time point were used. A modified two-compartment model (data not shown) was used to cofit the serum/renal tissue concentration-time profiles using ADAPT 5 (University of Southern California, Los Angeles, Calif.). Using the best-fit parameters, the AUC0-∞ was estimated by integrating instantaneous concentrations with respect to time. The AUC0-∞, renal tissue/AUC0-∞, serum ratio was used as an index to quantitatively assess preferential accumulation of polymyxin B in renal tissue.
To further examine whether the effect of sodium maleate on the renal accumulation of polymyxin B is transient, three additional rats were given a single dose of 400 mg/kg of sodium maleate intraperitoneally. Two weeks later, the animals were given a single dose of 3 mg/kg of polymyxin B intravenously. The rats were sacrificed at 3 h postdosing; kidneys were harvested and homogenized. Polymyxin B concentrations in renal tissue samples were assayed by the validated UPLC-MS/MS method.

[4] = tested on: multiple drug resistant (MDR) Pseudomonas aeruginosa strain (PA 9019); conditions: PA 9019, previously determined; cited from earlier work
[5] = tested on: P. aeruginosa ATCC 27853 (PA 27853); conditions: PA 27853, previously determined; cited from earlier work
[6] = experimental group: 400 mg/kg sodium maleate i.p. 3 to 6 h before

Substance: Polymyxin B
- animals that reached the predefined nephrotoxicity endpoint by day 7 ([1]; 5 mg/kg once daily subcutaneously up to 7 days): none
- animals that reached the nephrotoxicity endpoint within the first 48 h of treatment ([1]; 10 mg/kg daily subcutaneously): 1 out of 10
- animals that reached the nephrotoxicity endpoint within the first 48 h of treatment ([1]; 20 mg/kg daily subcutaneously): 8 out of 10
- animals that reached the predefined nephrotoxicity endpoint (serum creatinine >=2-fold baseline) ([1]; 20 mg/kg once daily subcutaneously up to 7 days): 10 out of 10
- concentration of polymyxin B in renal tissue ([2]; 5-mg/kg dosing group): 3.6 ± 0.4 µg/g
- concentration of polymyxin B in renal tissue ([2]; 10-mg/kg dosing group): 9.9 ± 1.5 µg/g
- concentration of polymyxin B in renal tissue ([2]; 20-mg/kg dosing group): 21.7 ± 4.8 µg/g
- attenuation of polymyxin B exposure in renal tissue after pretreatment with maleate ([3]; megalin-shedding rats vs control): approximately 40%
- AUC0-∞, renal tissue/AUC0-∞, serum ratio ([3]; control group): 19.1
- AUC0-∞, renal tissue ([3]; control group (no maleate)): 211900 ng·h/mL
- AUC0-∞, serum ([3]; control group (no maleate)): 10400 ng·h/mL
- renal tissue polymyxin B concentration (3 h postdosing) ([3]; control rats): 11.45 µg/g
- AUC0-∞, renal tissue/AUC0-∞, serum ratio ([3]; experimental group (maleate pretreatment)): 11.6
- AUC0-∞, renal tissue [3, 6]: 121000 ng·h/mL
- AUC0-∞, serum [3, 6]: 11100 ng·h/mL
- renal tissue polymyxin B concentration (3 h postdosing) ([3]; sodium maleate 400 mg/kg given 2 weeks earlier): 11.08 µg/g
- minimum inhibitory concentration (MIC) [4]: 4 µg/mL
- minimum inhibitory concentration (MIC) [5]: 2 µg/mL
